One block for each molecule: values may come before it.
Tests used:
[1] = tested on: SAM-I^1-156 (RNA, riboswitch) GGGAUAUCCGUUCUUAUCAAGAGAAGCAGAGGGACUGGCCCGACGAAGCUUCAGCAACCGGUGUAAUGGCGAUCAGCCAUGACCAAGGUGCUAAAUCCAGCAAGCUCGAACAGCUUGGAAGAUAAGAAGAGACAAAAUCACUGACAAAGUCUUCUUCUUCCCCCAAAAAAAAAAAAAAAAAAAAAAAA; assay: native PAGE switching with HOLO-FAM-SAM probe; conditions: MgCl2; THEM buffer pH 7.5; HOLO-FAM-SAM DNA probe hybridizes
[2] = tested on: SAM-I^1-156 (RNA, riboswitch) GGGAUAUCCGUUCUUAUCAAGAGAAGCAGAGGGACUGGCCCGACGAAGCUUCAGCAACCGGUGUAAUGGCGAUCAGCCAUGACCAAGGUGCUAAAUCCAGCAAGCUCGAACAGCUUGGAAGAUAAGAAGAGACAAAAUCACUGACAAAGUCUUCUUCUUCCCCCAAAAAAAAAAAAAAAAAAAAAAAA; assay: SPR kinetics; conditions: 150 mM NaCl, MgCl2; HBS-N, 10 mM HEPES pH 7.4; apparent
[3] = tested on: SAM-I^AD (yitJ SAM-I aptamer domain) (RNA, riboswitch) GGGCGUUCUUAUCAAGAGAAGCAGAGGGACUGGCCCGACGAAGCUUCAGCAACCGGUGUAAUGGCGAUCAGCCAUGACCAAGGUGCUAAAUCCAGCAAGCUCGAACAGCUUGGAAGAUAAGAAGCCCCCAAAAAAAAAAAAAAAAAAAAAAAA; assay: SPR kinetics; conditions: 150 mM NaCl, MgCl2; HBS-N, 10 mM HEPES pH 7.4; apparent
[4] = tested on: SAM-I riboswitch without spacer and poly(A) tail (RNA, riboswitch) GGGAUAUCCGUUCUUAUCAAGAGAAGCAGAGGGACUGGCCCGACGAAGCUUCAGCAACCGGUGUAAUGGCGAUCAGCCAUGACCAAGGUGCUAAAUCCAGCAAGCUCGAACAGCUUGGAAGAUAAGAAGAGACAAAAUCACUGACAAAGUCUUCUUCUU; assay: fluorescence anisotropy switching (FASST), HOLO probe; conditions: 150 mM NaCl, 2 mM MgCl2; 10 mM HEPES pH 7.4; HOLO-FAM-SAM DNA probe hybridizes
[5] = tested on: SAM-I^1-156 (RNA, riboswitch) GGGAUAUCCGUUCUUAUCAAGAGAAGCAGAGGGACUGGCCCGACGAAGCUUCAGCAACCGGUGUAAUGGCGAUCAGCCAUGACCAAGGUGCUAAAUCCAGCAAGCUCGAACAGCUUGGAAGAUAAGAAGAGACAAAAUCACUGACAAAGUCUUCUUCUUCCCCCAAAAAAAAAAAAAAAAAAAAAAAA; assay: as above; conditions: 150 mM NaCl, 2 mM MgCl2; 10 mM HEPES pH 7.4, 37 °C; 350 nM RNA; 50 nM HOLO-FAM-SAM DNA probe hybridizes
[6] = tested on: SAM-I^1-156 (RNA, riboswitch) GGGAUAUCCGUUCUUAUCAAGAGAAGCAGAGGGACUGGCCCGACGAAGCUUCAGCAACCGGUGUAAUGGCGAUCAGCCAUGACCAAGGUGCUAAAUCCAGCAAGCUCGAACAGCUUGGAAGAUAAGAAGAGACAAAAUCACUGACAAAGUCUUCUUCUUCCCCCAAAAAAAAAAAAAAAAAAAAAAAA; assay: native PAGE switching, no probe; conditions: MgCl2; THEM buffer pH 7.5; 0.5 μM RNA; top band; bottom band 23 ± 9 μM
[7] = tested on: SAM-I riboswitch without spacer and poly(A) tail (RNA, riboswitch) GGGAUAUCCGUUCUUAUCAAGAGAAGCAGAGGGACUGGCCCGACGAAGCUUCAGCAACCGGUGUAAUGGCGAUCAGCCAUGACCAAGGUGCUAAAUCCAGCAAGCUCGAACAGCUUGGAAGAUAAGAAGAGACAAAAUCACUGACAAAGUCUUCUUCUU; assay: fluorescence anisotropy switching (FASST), APO probe; conditions: 150 mM NaCl, 2 mM MgCl2; 10 mM HEPES pH 7.4; APO-FAM-SAM DNA probe displaced
[8] = tested on: SAM-I^AD (yitJ SAM-I aptamer domain) (RNA, riboswitch) GGGCGUUCUUAUCAAGAGAAGCAGAGGGACUGGCCCGACGAAGCUUCAGCAACCGGUGUAAUGGCGAUCAGCCAUGACCAAGGUGCUAAAUCCAGCAAGCUCGAACAGCUUGGAAGAUAAGAAGCCCCCAAAAAAAAAAAAAAAAAAAAAAAA; assay: ITC; conditions: 150 mM NaCl, 2 mM MgCl2; 10 mM HEPES pH 7.4, 25 °C; 10 μM RNA
[9] = tested on: SAM-I^1-156 (RNA, riboswitch) GGGAUAUCCGUUCUUAUCAAGAGAAGCAGAGGGACUGGCCCGACGAAGCUUCAGCAACCGGUGUAAUGGCGAUCAGCCAUGACCAAGGUGCUAAAUCCAGCAAGCUCGAACAGCUUGGAAGAUAAGAAGAGACAAAAUCACUGACAAAGUCUUCUUCUUCCCCCAAAAAAAAAAAAAAAAAAAAAAAA; assay: fluorescence anisotropy switching (FASST), APO probe; conditions: 150 mM NaCl, 2 mM MgCl2; 10 mM HEPES pH 7.4, 37 °C; 75 nM RNA; 50 nM APO-FAM-SAM DNA probe displaced
[10] = tested on: SAM-I^1-156 (RNA, riboswitch) GGGAUAUCCGUUCUUAUCAAGAGAAGCAGAGGGACUGGCCCGACGAAGCUUCAGCAACCGGUGUAAUGGCGAUCAGCCAUGACCAAGGUGCUAAAUCCAGCAAGCUCGAACAGCUUGGAAGAUAAGAAGAGACAAAAUCACUGACAAAGUCUUCUUCUUCCCCCAAAAAAAAAAAAAAAAAAAAAAAA; assay: native PAGE switching with APO-FAM-SAM probe; conditions: MgCl2; THEM buffer pH 7.5; APO-FAM-SAM DNA probe displaced
[11] = tested on: FMN^1-212 (RNA, riboswitch) GGGAAAAAUAAAUAUUAAAAAUAAUCUUCGGGGCAGGGUGAAAUUCCCGACCGGUGGUAUAGUCCACGAAAGUAUUUGCUUUGAUUUGGUGAAAUUCCAAAACCGACAGUAGAGUCUGGAUGAGAGAAGAAAAGAAAUUUAAGUUUUUUAACUUGUUUUCUACAUUUUAGUAAUCUUACCCGAAUUCUAUAAUUCGGUUUUUUUAUUUUAACUGGCCCCCAAAAAAAAAAAAAAAAAAAAAAAA; assay: SPR steady state; conditions: 150 mM NaCl, 5 mM MgCl2; HBS-N, 10 mM HEPES pH 7.4; apparent
[12] = tested on: FMN^AD (FMN aptamer domain) (RNA, riboswitch) GGGAUCUUCGGGGCAGGGUGAAAUUCCCGACCGGUGGUAUAGUCCACGAAAGUAUUUGCUUUGAUUUGGUGAAAUUCCAAAACCGACAGUAGAGUCUGGAUGAGAGAAGACCCCCAAAAAAAAAAAAAAAAAAAAAAAA; assay: SPR steady state; conditions: 150 mM NaCl, MgCl2; HBS-N, 10 mM HEPES pH 7.4
[13] = tested on: FMN^1-212 (RNA, riboswitch) GGGAAAAAUAAAUAUUAAAAAUAAUCUUCGGGGCAGGGUGAAAUUCCCGACCGGUGGUAUAGUCCACGAAAGUAUUUGCUUUGAUUUGGUGAAAUUCCAAAACCGACAGUAGAGUCUGGAUGAGAGAAGAAAAGAAAUUUAAGUUUUUUAACUUGUUUUCUACAUUUUAGUAAUCUUACCCGAAUUCUAUAAUUCGGUUUUUUUAUUUUAACUGGCCCCCAAAAAAAAAAAAAAAAAAAAAAAA; assay: fluorescence anisotropy switching (FASST), APO probe; conditions: 150 mM NaCl, 5 mM MgCl2, 350 nM RNA, 5 nM APO-FAM-FMN DNA probe displaced
[14] = tested on: FMN^AD (FMN aptamer domain) (RNA, riboswitch) GGGAUCUUCGGGGCAGGGUGAAAUUCCCGACCGGUGGUAUAGUCCACGAAAGUAUUUGCUUUGAUUUGGUGAAAUUCCAAAACCGACAGUAGAGUCUGGAUGAGAGAAGACCCCCAAAAAAAAAAAAAAAAAAAAAAAA; assay: SPR kinetics; conditions: 150 mM NaCl, MgCl2; HBS-N, 10 mM HEPES pH 7.4; apparent
[15] = tested on: FMN^1-212 (RNA, riboswitch) GGGAAAAAUAAAUAUUAAAAAUAAUCUUCGGGGCAGGGUGAAAUUCCCGACCGGUGGUAUAGUCCACGAAAGUAUUUGCUUUGAUUUGGUGAAAUUCCAAAACCGACAGUAGAGUCUGGAUGAGAGAAGAAAAGAAAUUUAAGUUUUUUAACUUGUUUUCUACAUUUUAGUAAUCUUACCCGAAUUCUAUAAUUCGGUUUUUUUAUUUUAACUGGCCCCCAAAAAAAAAAAAAAAAAAAAAAAA; assay: SPR; conditions: 150 mM NaCl, 5 mM MgCl2; HBS-N, 10 mM HEPES pH 7.4; apparent; Table 2 prints 150 ± 180 nM
[16] = tested on: SAM-I^AD (yitJ SAM-I aptamer domain) (RNA, riboswitch) GGGCGUUCUUAUCAAGAGAAGCAGAGGGACUGGCCCGACGAAGCUUCAGCAACCGGUGUAAUGGCGAUCAGCCAUGACCAAGGUGCUAAAUCCAGCAAGCUCGAACAGCUUGGAAGAUAAGAAGCCCCCAAAAAAAAAAAAAAAAAAAAAAAA; assay: SPR steady state; conditions: 150 mM NaCl, MgCl2; HBS-N, 10 mM HEPES pH 7.4
[17] = tested on: SAM-I^1-156 (RNA, riboswitch) GGGAUAUCCGUUCUUAUCAAGAGAAGCAGAGGGACUGGCCCGACGAAGCUUCAGCAACCGGUGUAAUGGCGAUCAGCCAUGACCAAGGUGCUAAAUCCAGCAAGCUCGAACAGCUUGGAAGAUAAGAAGAGACAAAAUCACUGACAAAGUCUUCUUCUUCCCCCAAAAAAAAAAAAAAAAAAAAAAAA; assay: SPR steady state; conditions: 150 mM NaCl, 2 mM MgCl2, HBS-N, 10 mM HEPES pH 7.4, apparent, no switching seen by FASST

SMILES: C[S+](CC[C@H](N)C(=O)O)C[C@H]1O[C@@H](n2cnc3c(N)ncnc32)[C@H](O)[C@@H]1O (some centres unmarked)
S50 NP [1]: 1.03 ± 0.08 µM
KD [2]: 0.0101 ± 0.0004 µM
KD [3]: 0.004 ± 0.002 µM
S50FASST [4]: 0.19 ± 0.08 µM
S50FASST [5]: 1.7 ± 0.4 µM
S50 NP [6]: 6 ± 2 µM
S50FASST [7]: 8 ± 3 µM
KD [8]: 0.128 ± 0.027 µM
S50FASST [9]: 19 ± 12 µM
S50 NP [10]: 46 ± 44 µM

SMILES: Nc1ncnc2c1ncn2[C@@H]1O[C@H](CSCC[C@H](N)C(=O)O)[C@@H](O)[C@H]1O
KD [16]: 195 ± 22 µM
KD [17]: 46 ± 27 µM

SMILES: Nc1ncnc2c1ncn2[C@@H]1O[C@H](C[C@@H](N)CC[C@H](N)C(=O)O)[C@@H](O)[C@H]1O
KD [16]: 129 ± 14 µM
KD ([17]; error exceeds value): 2000 ± 3000 µM

More lines, now with the values ahead:

KD [11]: 32 ± 11 µM
KD [12]: 30 ± 18 µM
S50FASST ([13]; 10 mM HEPES pH 7.4, overnight): 0.7 ± 0.3 µM
SMILES: Cc1cc2nc3c(=O)[nH]c(=O)nc-3n(C[C@H](O)[C@H](O)[C@H](O)CO)c2cc1C

KD [11]: 4.9 ± 0.2 µM
KD [12]: 2 ± 1 µM
S50FASST ([13]; 10 mM HEPES pH 7.4, overnight): 24 ± 20 µM
SMILES: Cc1cc2nc3c(=O)[nH]c(=O)nc-3n(C[C@H](O)[C@H](O)[C@H](O)CO)c2cc1N(C)C

KD [14]: 0.16 ± 0.012 µM
S50FASST ([13]; 10 mM HEPES pH 7.4, 37 °C): 0.29 ± 0.06 µM
KD [15]: 0.095 ± 0.05 µM
SMILES: Cc1cc2nc3c(=O)[nH]c(=O)nc-3n(C[C@H](O)[C@H](O)[C@H](O)COP(=O)(O)O)c2cc1C

From PMC11014391 (2024)
